Structures can show the parent of a compound that is named as a salt. Where two headings read alike, the source gives them in different places.
Assays:
[1] = test system: phenylquinone-induced writhing; assay: phenylquinone-induced writhing test on mice (analgesia); assay type: in vivo, male NMRI mice; conditions: Mus musculus, read-out: ED50 in the writhing test
Protocol: Testing for analgesia using the writhing test on mice
Testing for analgesic effectiveness was performed using the phenylquinone-induced writhing test on mice (modified according to I. C. Hendershot, J. Forsaith, J. Pharmacol. Exp. Ther. 125, 237-240 (1959)). […]. For each dose of substance, groups of 10 animals received, 10 minutes after the intravenous administration of the compounds to be used according to the invention, 0.3 ml per mouse of an 0.02% aqueous solution of phenylquinone (phenylbenzoquinone: manufactured by Sigma, Deisenhofen; solution prepared with the addition of 5 % ethanol and kept on a water bath at 45° C.) administered intraperitoneally. The animals were placed individually in observation cages, and the number of pain-induced stretching movements (so-called writhing reactions=straightening of the body with stretching of the rear extremities) 5-20 minutes after the administration of phenylquinone was counted by means of a push-button counter. The ED50 values were calculated with a 95% confidence limit by means of regression analysis (evaluation program supplied by Martens EDV Service, Eckental) from the dose-dependent decrease in the writhing reactions, by comparison with control groups which were tested in parallel and which were treated with phenylquinone only.

[2] = test system: thermal radiation pain (tail flick); assay: thermal radiation (tail flick) test on rats (analgesia); assay type: in vivo, female Sprague Dawley rats; conditions: Rattus norvegicus, 20 min, read-out: ED50 in the tail flick test
Excerpt: Testing for analgesia using the tail flick test on rats
The analgesic effectiveness of the compounds to be used according to the invention was investigated in the thermal radiation (tail flick) test on rats using the method of D'Amour and Smith (J. Pharm. Exp. Ther. 72, 74-79 (1941). Female Sprague Dawley rats with a weight of 120-160 g were used for this purpose. The animals were placed individually in test cages and the bases of their tails were exposed to the focused thermal radiation from an electric lamp (Rhema Analgesiemeter for rats). The lamp intensity was adjusted so that the time from switching on the lamp until the sudden twitching away of the tail (latency of pain) was 3-6 seconds for untreated animals. Before the administration of the compounds to be used according to the invention, the animals were tested twice within five minutes and the average value of these measurements was calculated as the pre-test average. The pain measurement was made 20, 40 and 60 minutes after intravenous administration. […]. In order to determine the dosage-dependency, the compounds were administered in doses increasing logarithmically by a factor of 3-5, which included the threshold and the maximum effective dose each time. The ED50 values were determined from the number of analgesic animals by the method of Litchfield and Wilcoxon (J. Pharm. Exp. Ther. 96, 99-113, (1949)). The ED50 was calculated at the effective maximum 20 minutes after intravenous administration of the substance.

[3] = analgesic effect (statement in words); assay type: in vivo; conditions: on its own or in combination with tramadol
[4] = intravenous, phenylquinone i.p. 10 minutes after compound, writhing counted 5-20 minutes after phenylquinone, mice
[5] = intravenous, 20 minutes after administration, >150 % of pre-test average latency, rats

Compound `COc1cccc([C@@]2(O)CCCC[C@@H]2CN(C)C)c1.Cl` (racemic) [racemic tramadol hydrochloride, (1RS, 2RS)-2-dimethylaminomethyl-1-(3-methoxy-phenyl)-cyclohexanol hydrochloride, reference compound] has an ED50 ([1]; iv) of 3.59 mg/kg and an ED50 ([2]; iv) of 6.47 mg/kg.
In the case of `CN(C)C[C@H]1CCCC[C@]1(O)c1cccc(O)c1` (relative stereo) [O-demethyltramadol], the analgesic effect [3] is reported as “high analgesic effect”.
For `CN(C)C[C@H]1CCCC[C@]1(O)c1cccc(O)c1` [(+)-enantiomer of O-demethyltramadol hydrochloride, (+)-(1R, 2R)-3-(2-dimethyl-aminomethyl-1-hydroxy-cyclohexyl)-phenol hydrochloride], the ED50 [1, 4] was 0.489 mg/kg and the ED50 [2, 5] was 1.01 mg/kg.
Compound `CN(C)C[C@@H]1CCCC[C@@]1(O)c1cccc(O)c1` [(-)-enantiomer of O-demethyltramadol hydrochloride, (-)-(1S, 25)-3-(2-dimethylaminomethyl-1-hydroxy-cyclohexyl)-phenol hydrochloride] has an ED50 [1, 4] of 6.6 mg/kg and an ED50 [2, 5] of over 10 mg/kg.

Source: patent US5728885A, “Method of preparing the enantiomers of O-dimethyltramadol” (priority 1996, dated 1998)
